Reference: patent US10689378B2, “Triazolopyridine compounds and uses thereof” (Novartis AG, priority 2016, dated 2020)
Read-outs that look alike come from different tables or passages of the source.

Key:
[1] = test system: H3K27 methylation in G401 cell; assay: ELISA (H3K27 methylation) assay in G401 cells; format: cell-based, human; details: Homo sapiens
Summary of the method: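 G401 cells treated 48 h with 3-fold dilutions (8 or 12 points, top 20 μM). Acid-extracted histones probed by ELISA for H3K27me3 or H3K27me2 with ECL readout, normalized to total H3. Percent inhibition versus DMSO fitted to dose-response curve for IC50.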

[2] = molecular target: T1, EED (1-441)-His protein (Homo sapiens, UniProt O75530); assay: EED-H3K27Me3 peptide competition binding assay by AlphaScreen
T1 construct: 30 nM EED (1-441)-His protein
T1 sequence (O75530 whole entry): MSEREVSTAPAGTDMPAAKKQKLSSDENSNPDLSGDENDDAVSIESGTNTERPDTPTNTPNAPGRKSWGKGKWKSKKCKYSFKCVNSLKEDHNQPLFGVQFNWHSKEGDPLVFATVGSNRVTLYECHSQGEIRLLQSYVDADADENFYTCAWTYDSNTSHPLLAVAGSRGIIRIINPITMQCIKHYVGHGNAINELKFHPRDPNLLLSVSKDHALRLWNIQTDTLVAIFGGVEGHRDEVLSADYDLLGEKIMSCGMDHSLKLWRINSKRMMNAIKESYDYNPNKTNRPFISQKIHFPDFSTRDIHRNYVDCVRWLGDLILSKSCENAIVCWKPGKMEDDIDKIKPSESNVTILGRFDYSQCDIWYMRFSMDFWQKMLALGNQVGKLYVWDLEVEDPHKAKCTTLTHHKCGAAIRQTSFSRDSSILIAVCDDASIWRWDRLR
Summary of the method: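 Serially diluted compound (12 points, 3-fold) incubated 20 min with 30 nM EED(1-441)-His and 15 nM biotin-H3K27Me3(19-33) peptide in 25 mM HEPES pH 8, 0.02% Tween-20, 0.5% BSA. Ni-chelate acceptor/streptavidin donor beads (10 μg/mL each) added, 1 h rt dark; 615 nm emission normalized to controls, dose-response fit for IC50.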

[3] = G-401, read-out: (c) IC50 ELISA Qualified
[4] = read-out: (a) IC50 EED Alphascreen binding Qualified
[5] = G-401, read-out: (c) IC50, ELISA Qualified
[6] = read-out: (a) IC50, EED Alphascreen binding Qualified
[7] = G-401, H3K27 methylation ELISA, read-out: (c) IC50 ELISA Qualified
[8] = EED-H3K27Me3 peptide competition, AlphaScreen, read-out: (a) IC50 EED Alphascreen binding Qualified

IC50 [1, 5] [nM]	IC50 [2, 6] [nM]	Structure (SMILES)	also measured
–	–	COc1cccc(CNc2ccc(-c3cccnc3C)c3nncn23)n1 [Example 364, N-((6-methoxypyridin-2-yl)methyl)-8-(2-methylpyridin-3-yl)-[1,2,4]triazolo[4,3-a] pyridin-5-amine]	IC50 [1, 3]: 80.6 nM; IC50 [2, 4]: 120 nM
66.3	59.8	COc1ccccc1CNc1ccc(-c2cncnc2)c2nncn12 [Example 58, N-(2-methoxybenzyl)-8-(pyrimidin-5-yl)-[1,2,4] triazolo[4,3-a]pyridin-5-amine]	–
8210	2860	COc1cc(F)c(F)cc1CNc1ccc(-c2ccc(CN(C)C)cc2)c2nncn12 [Example 103, N-(4,5-difluoro-2-methoxybenzyl)-8-(4-((dimethylamino)methyl)phenyl)-[1,2,4]triazolo[4,3-a] pyridin-5-amine]	–
–	–	COc1cccc(F)c1CNc1ccc(-c2cnccc2C(F)(F)F)c2nncn12 [Example 202, N-(2-fluoro-6-methoxybenzyl)-8-(4-(trifluoromethyl)pyridin-3-yl)-[1,2,4]triazolo[4,3-a] pyridin-5-amine]	IC50 [1, 7]: 318 nM; IC50 [2, 8]: 270 nM
521	180	COc1ccccc1CNc1ccc(-c2ccccc2)c2nncn12 [Example 23, N-(2-methoxybenzyl)-8-phenyl-[1,2,4]triazolo[4,3-a] pyridin-5-amine]	–
–	–	COc1ccc(F)c(F)c1CNc1ccc(-c2cccnc2)c2nncn12 [Example 242, N-(2,3-difluoro-6-methoxybenzyl)-8-(pyridin-3-yl)-[1,2,4]triazolo[4,3-a]pyridin-5-amine]	IC50 [1, 7]: 454 nM; IC50 [2, 8]: 177 nM
11000	1660	COc1ccccc1CNc1ccc(-c2ccc(N3CCOCC3)c(Cl)c2)c2nncn12 [Example 65, 8-(3-chloro-4-morpholinophenyl)-N-(2-methoxybenzyl)-[1,2,4] triazolo[4,3-a]pyridin-5-amine]	–
–	–	COc1ccc(F)c(F)c1CNc1ccc(-c2ccncc2)c2nncn12 [Example 243, N-(2,3-difluoro-6-methoxybenzyl)-8-(pyridin-4-yl)-[1,2,4]triazolo[4,3-a]pyridin-5-amine]	IC50 [1, 7]: 349 nM; IC50 [2, 8]: 329 nM
190	244	COc1ccc(F)c(CNc2ccc(-c3ccc(S(C)(=O)=O)cc3)c3nncn23)c1 [Example 120, N-(2-fluoro-5-methoxybenzyl)-8-(4-(methylsulfonyl)phenyl)-[1,2,4]triazolo[4,3-a]pyridin-5-amine]	–
–	–	COc1cccc(F)c1CNc1ccc(-c2cn(C(C)C)nc2C(F)(F)F)c2nncn12 [Example 255, N-(2-fluoro-6-methoxybenzyl)-8-(1-isopropyl-3-(trifluoromethyl)-1H-pyrazol-4-yl)-[1,2,4]triazolo[4,3-a] pyridin-5-amine]	IC50 [1, 7]: 76.8 nM; IC50 [2, 8]: 189 nM
138	313	COc1ccc(F)c(CNc2ccc(-c3ccc(S(C)(=O)=O)nc3)c3nncn23)c1 [Example 122, N-(2-fluoro-5-methoxybenzyl)-8-(6-(methylsulfonyl)pyridin-3-yl)-[1,2,4]triazolo[4,3-a] pyridin-5-amine]	–
299	138	COc1cc(F)ccc1CNc1ccc(-c2ccncc2)c2nncn12 [Example 92, N-(4-fluoro-2-methoxybenzyl)-8-(pyridin-4-yl)-[1,2,4]triazolo[4,3-a]pyridin-5-amine]	–
1480	132	COc1cc(F)ccc1CNc1ccc(-c2ccc(S(N)(=O)=O)cc2)c2nncn12 [Example 89, 4-(5-((4-fluoro-2-methoxybenzyl)amino)-[1,2,4]triazolo[4,3-a]pyridin-8-yl)benzenesulfonamide]	–
1180	177	COc1cc(F)ccc1CNc1ccc(-c2ccc(S(=O)(=O)N(C)C)cc2)c2nncn12 [Example 84, 4-(5-((4-fluoro-2-methoxybenzyl)amino)-[1,2,4]triazolo[4,3-a]pyridin-8-yl)-N,N-dimethylbenzene sulfonamide]	–
895	846	COc1ccc(F)cc1CNc1ccc(-c2ccncc2)c2nncn12 [Example 117, N-(5-fluoro-2-methoxybenzyl)-8-(pyridin-4-yl)-[1,2,4]triazolo[4,3-a]pyridin-5-amine]	–
132	160	COc1cc(F)ccc1CNc1ccc(-c2cnc(N3CCN(C(C)C)CC3)nc2)c2nncn12 [Example 104, N-(4-fluoro-2-methoxybenzyl)-8-(2-(4-isopropylpiperazin-1-yl)pyrimidin-5-yl)-[1,2,4]triazolo[4,3-a] pyridin-5-amine]	–

IC50 [1, 5] [nM]	IC50 [2, 6] [nM]	Structure (SMILES)	also measured
279	444	COc1ccc(F)cc1CNc1ccc(-c2ccc(S(=O)(=O)C3CCN(C)CC3)cc2)c2nncn12 [Example 135, N-(5-fluoro-2-methoxybenzyl)-8-(4-((1-methylpiperidin-4-yl)sulfonyl)phenyl)-[1,2,4]triazolo[4,3-a] pyridin-5-amine]	–
508	394	Cc1ccccc1CNc1ccc(-c2ccc(CN(C)C)cc2)c2nncn12 [Example 31, 8-(4-((dimethylamino)methyl)phenyl)-N-(2-methylbenzyl)-[1,2,4]triazolo[4,3-a]pyridin-5-amine]	–
–	–	COc1ccc(F)c(CNc2ccc(-c3cccnc3C)c3nncn23)c1 [Example 291, N-(2-fluoro-5-methoxybenzyl)-8-(2-methylpyridin-3-yl)-[1,2,4]triazolo[4,3-a] pyridin-5-amine]	IC50 [1, 7]: 84.9 nM; IC50 [2, 8]: 184 nM
5140	677	COc1c(F)cccc1CNc1ccc(-c2ccc(S(C)(=O)=O)cc2)c2nncn12 [Example 119, N-(3-fluoro-2-methoxybenzyl)-8-(4-(methylsulfonyl)phenyl)-[1,2,4]triazolo[4,3-a]pyridin-5-amine]	–
44.1	15.1	COc1ccccc1CNc1ccc(-c2ccc(CN3CCCC3=O)cc2)c2nncn12 [Example 55, 1-(4-(5-((2-methoxybenzyl)amino)-[1,2,4]triazolo[4,3-a]pyridin-8-yl)benzyl) pyrrolidin-2-one]	–
74.2	127	COc1ccccc1CNc1ccc(-c2c(C)nn(C)c2C)c2nncn12 [Example 110, N-(2-methoxybenzyl)-8-(1,3,5-trimethyl-1H-pyrazol-4-yl)-[1,2,4]triazolo[4,3-a] pyridin-5-amine]	–
928	387	COc1ccc(F)cc1CNc1ccc(-c2ccc(CN(C)C)cc2)c2nncn12 [Example 81, 8-(4-((dimethylamino)methyl)phenyl)-N-(5-fluoro-2-methoxybenzyl)-[1,2,4]triazolo[4,3-a]pyridin-5-amine]	–
–	–	Cc1cccc(F)c1CNc1ccc(-c2cccnc2C)c2nncn12 [Example 331, N-(2-fluoro-6-methylbenzyl)-8-(2-methylpyridin-3-yl)-[1,2,4]triazolo[4,3-a] pyridin-5-amine]	IC50 [1, 7]: 519 nM; IC50 [2, 8]: 459 nM
–	–	COc1cccc(F)c1CNc1ccc(-c2ccc(C#N)cc2C)c2nncn12 [Example 209, 4-(5-((2-fluoro-6-methoxybenzyl)amino)-[1,2,4]triazolo[4,3-a]pyridin-8-yl)-3-methylbenzonitrile]	IC50 [1, 7]: 76.2 nM; IC50 [2, 8]: 119 nM
748	276	COc1ccc(F)cc1CNc1ccc(-c2ccc(S(C)(=O)=O)cc2)c2nncn12 [Example 116, N-(5-fluoro-2-methoxybenzyl)-8-(4-(methylsulfonyl)phenyl)-[1,2,4]triazolo[4,3-a]pyridin-5-amine]	–
–	–	COc1nccc(N)c1CNc1ccc(-c2cccnc2C)c2nncn12 [Example 371, N-((4-amino-2-methoxypyridin-3-yl)methyl)-8-(2-methylpyridin-3-yl)-[1,2,4] triazolo[4,3-a]pyridin-5-amine]	IC50 [1, 3]: 92.7 nM; IC50 [2, 4]: 102 nM
280	325	COc1cccc(CNc2ccc(-c3ccc(CN(C)C)cc3)c3nncn23)c1 [Example 14, 8-(4-((dimethylamino)methyl)phenyl)-N-(3-methoxybenzyl)-[1,2,4] triazolo[4,3-a]pyridin-5-amine]	–
–	–	COc1ccc(F)c(F)c1CNc1ccc(-c2ccc(S(C)(=O)=O)cc2)c2nncn12 [Example 244, N-(2,3-difluoro-6-methoxybenzyl)-8-(4-(methylsulfonyl)phenyl)-[1,2,4]triazolo[4,3-a]pyridin-5-amine]	IC50 [1, 7]: 277 nM; IC50 [2, 8]: 231 nM
1270	1260	COc1ccc(F)cc1CNc1ccc(-c2cccnc2)c2nncn12 [Example 118, N-(5-fluoro-2-methoxybenzyl)-8-(pyridin-3-yl)-[1,2,4]triazolo[4,3-a]pyridin-5-amine]	–
4110	1980	COc1c(F)cc(F)cc1CNc1ccc(-c2ccc(CN(C)C)cc2)c2nncn12 [Example 146, N-(3,5-difluoro-2-methoxybenzyl)-8-(4-((dimethylamino)methyl)phenyl)-[1,2,4]triazolo[4,3-a] pyridin-5-amine]	–
–	–	COc1cccc(F)c1CNc1ccc(-c2ccc(Cl)nc2C)c2nncn12 [Example 263, 8-(6-chloro-2-methylpyridin-3-yl)-N-(2-fluoro-6-methoxybenzyl)-[1,2,4]triazolo[4,3-a] pyridin-5-amine]	IC50 [1, 7]: 15.4 nM; IC50 [2, 8]: 16.9 nM
